According to the NIST ThermoML archive (doi:10.1021/je3013342):
± gives the expanded uncertainty stated by the source.

Legend:
[1] = 101 kPa, Liquid, Vibrating tube method
[2] = xn = mol fraction of the nth substance listed; settings: 101 kPa, Liquid, Vibrating tube method

CC(Cl)(Cl)Cl [1,1,1-trichloroethane]
[1]
Settings | mass density [kg/m3]
298.15 K | 1328.24 ± 0.93
308.15 K | 1311.45 ± 0.92
318.15 K | 1294.47 ± 0.91

CC(Cl)(Cl)Cl [1,1,1-trichloroethane] + C[N+](=O)[O-]
mass density [kg/m3], [2]
Settings | x1 = 0.0921 | x1 = 0.1727 | x1 = 0.2614 | x1 = 0.3951 | x1 = 0.4862 | x1 = 0.5904 | x1 = 0.7066 | x1 = 0.8358 | x1 = 0.9012 | x1 = 1
298.15 K | 1161.87 ± 0.94 | 1185.48 ± 0.95 | 1208.35 ± 0.95 | 1238.06 ± 0.95 | 1255.6 ± 0.95 | 1273.47 ± 0.94 | 1291.18 ± 0.94 | 1308.67 ± 0.93 | 1316.72 ± 0.93 | 1328.24 ± 0.93
308.15 K | 1147.77 ± 0.94 | 1170.98 ± 0.94 | 1193.5 ± 0.94 | 1222.71 ± 0.94 | 1239.96 ± 0.94 | 1257.52 ± 0.94 | 1274.93 ± 0.93 | 1292.14 ± 0.93 | 1300.08 ± 0.92 | 1311.45 ± 0.92
318.15 K | 1133.54 ± 0.93 | 1156.35 ± 0.93 | 1178.49 ± 0.93 | 1207.19 ± 0.93 | 1224.13 ± 0.93 | 1241.39 ± 0.93 | 1258.49 ± 0.92 | 1275.42 ± 0.92 | 1283.24 ± 0.92 | 1294.47 ± 0.91

ClC(Cl)C(Cl)Cl [1,1,2,2-tetrachloroethane]
[1]
Settings | mass density [kg/m3]
298.15 K | 1588.23 ± 2.3
308.15 K | 1572.66 ± 2.2
318.15 K | 1557.04 ± 2.2

ClC(Cl)C(Cl)Cl [1,1,2,2-tetrachloroethane] + C[N+](=O)[O-]
mass density [kg/m3], [2]
Settings | x1 = 0.0711 | x1 = 0.1888 | x1 = 0.2563 | x1 = 0.3464 | x1 = 0.4341 | x1 = 0.5431 | x1 = 0.6654 | x1 = 0.8211 | x1 = 0.9285 | x1 = 1
298.15 K | 1191.08 ± 1 | 1275.68 ± 1.1 | 1318 ± 1.2 | 1366.65 ± 1.3 | 1408.57 ± 1.4 | 1454.03 ± 1.5 | 1497.84 ± 1.7 | 1544.6 ± 1.9 | 1571.92 ± 2.1 | 1588.23 ± 2.3
308.15 K | 1177.12 ± 1 | 1261.26 ± 1.1 | 1303.41 ± 1.2 | 1351.85 ± 1.3 | 1393.61 ± 1.4 | 1438.91 ± 1.5 | 1482.56 ± 1.7 | 1529.17 ± 1.9 | 1556.4 ± 2.1 | 1572.66 ± 2.2
318.15 K | 1163.03 ± 1 | 1246.76 ± 1.1 | 1288.69 ± 1.1 | 1336.94 ± 1.2 | 1378.54 ± 1.3 | 1423.68 ± 1.5 | 1467.2 ± 1.6 | 1513.67 ± 1.9 | 1540.82 ± 2.1 | 1557.04 ± 2.2

ClCCCl [1,2-dichloroethane]
[1]
Settings | mass density [kg/m3]
298.15 K | 1245.59 ± 0.81
308.15 K | 1230.96 ± 0.81
318.15 K | 1216.16 ± 0.81

ClCCCl [1,2-dichloroethane] + C[N+](=O)[O-]
[2], x1 = 1
Settings | mass density [kg/m3]
298.15 K | 1245.59 ± 0.81
308.15 K | 1230.96 ± 0.81
318.15 K | 1216.16 ± 0.81

ClCCCCl [1,3-dichloropropane]
[1]
Settings | mass density [kg/m3]
298.15 K | 1180.1 ± 0.81
308.15 K | 1167.7 ± 0.81
318.15 K | 1155.21 ± 0.81

ClCCCCl [1,3-dichloropropane] + C[N+](=O)[O-]
mass density [kg/m3], [2]
Settings | x1 = 0.0878 | x1 = 0.1939 | x1 = 0.2938 | x1 = 0.3998 | x1 = 0.5028 | x1 = 0.6154 | x1 = 0.7207 | x1 = 0.8326 | x1 = 0.9404 | x1 = 1
298.15 K | 1135.58 ± 0.91 | 1141.34 ± 0.89 | 1146.79 ± 0.87 | 1152.41 ± 0.85 | 1157.65 ± 0.84 | 1163.15 ± 0.83 | 1168.07 ± 0.82 | 1173.04 ± 0.82 | 1177.55 ± 0.81 | 1180.1 ± 0.81
308.15 K | 1122.12 ± 0.9 | 1128.05 ± 0.88 | 1133.64 ± 0.86 | 1139.39 ± 0.85 | 1144.76 ± 0.84 | 1150.38 ± 0.83 | 1155.41 ± 0.82 | 1160.49 ± 0.82 | 1165.1 ± 0.81 | 1167.7 ± 0.81
318.15 K | 1108.53 ± 0.89 | 1114.63 ± 0.88 | 1120.37 ± 0.86 | 1126.26 ± 0.85 | 1131.76 ± 0.84 | 1137.51 ± 0.83 | 1142.65 ± 0.82 | 1147.84 ± 0.82 | 1152.56 ± 0.81 | 1155.21 ± 0.81

ClCCCCCl [1,4-dichlorobutane]
[1]
Settings | mass density [kg/m3]
298.15 K | 1133.94 ± 0.8
308.15 K | 1123 ± 0.8
318.15 K | 1112 ± 0.8

ClCCCCCl [1,4-dichlorobutane] + C[N+](=O)[O-]
mass density [kg/m3], [2]
Settings | x1 = 0.0825 | x1 = 0.1759 | x1 = 0.2825 | x1 = 0.3815 | x1 = 0.4815 | x1 = 0.5911 | x1 = 0.6898 | x1 = 0.8208 | x1 = 0.9262 | x1 = 1
298.15 K | 1128.17 ± 0.9 | 1126.77 ± 0.88 | 1126.33 ± 0.85 | 1126.62 ± 0.84 | 1127.33 ± 0.83 | 1128.46 ± 0.82 | 1129.64 ± 0.81 | 1131.38 ± 0.81 | 1132.86 ± 0.81 | 1133.94 ± 0.8
308.15 K | 1114.98 ± 0.89 | 1113.92 ± 0.87 | 1113.86 ± 0.85 | 1114.44 ± 0.84 | 1115.42 ± 0.83 | 1116.8 ± 0.82 | 1118.18 ± 0.81 | 1120.16 ± 0.81 | 1121.81 ± 0.81 | 1123 ± 0.8
318.15 K | 1101.65 ± 0.89 | 1100.97 ± 0.87 | 1101.28 ± 0.85 | 1102.17 ± 0.83 | 1103.42 ± 0.82 | 1105.05 ± 0.82 | 1106.65 ± 0.81 | 1108.88 ± 0.81 | 1110.7 ± 0.8 | 1112 ± 0.8

CCCCCl [1-chlorobutane]
[1]
Settings | mass density [kg/m3]
298.15 K | 881.17 ± 0.81
308.15 K | 870 ± 0.81
318.15 K | 858.67 ± 0.81

CCCCCl [1-chlorobutane] + C[N+](=O)[O-]
[2], x1 = 1
Settings | mass density [kg/m3]
298.15 K | 881.17 ± 0.81
308.15 K | 870 ± 0.81
318.15 K | 858.67 ± 0.81
